pEC50: −log10 of the molar value.
Columns and labels:
[1] = target: T1, Peroxisome proliferator-activated receptor gamma (Homo sapiens, UniProt P37231); experiment: Agonist activity at GAL4-tagged PPARgamma (unknown origin)
T1 sequence (P37231 whole entry): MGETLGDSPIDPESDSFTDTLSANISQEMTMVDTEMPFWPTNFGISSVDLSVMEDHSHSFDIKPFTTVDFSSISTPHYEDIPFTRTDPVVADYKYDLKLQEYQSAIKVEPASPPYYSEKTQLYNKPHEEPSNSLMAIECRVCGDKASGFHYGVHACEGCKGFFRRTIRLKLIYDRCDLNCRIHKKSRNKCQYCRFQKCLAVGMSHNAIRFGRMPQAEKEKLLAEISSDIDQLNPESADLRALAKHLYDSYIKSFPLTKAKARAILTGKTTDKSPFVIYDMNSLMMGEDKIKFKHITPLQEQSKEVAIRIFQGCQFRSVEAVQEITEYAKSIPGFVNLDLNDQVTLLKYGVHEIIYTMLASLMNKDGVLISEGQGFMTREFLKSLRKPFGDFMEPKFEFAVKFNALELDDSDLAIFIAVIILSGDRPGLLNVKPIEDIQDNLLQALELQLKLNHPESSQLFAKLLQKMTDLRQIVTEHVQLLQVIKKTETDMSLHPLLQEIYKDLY

[2] = target: T2, Peroxisome proliferator-activated receptor delta (Homo sapiens, UniProt Q03181); experiment: Agonist activity at GAL4-tagged PPARdelta (unknown origin)
T2 sequence (Q03181 whole entry): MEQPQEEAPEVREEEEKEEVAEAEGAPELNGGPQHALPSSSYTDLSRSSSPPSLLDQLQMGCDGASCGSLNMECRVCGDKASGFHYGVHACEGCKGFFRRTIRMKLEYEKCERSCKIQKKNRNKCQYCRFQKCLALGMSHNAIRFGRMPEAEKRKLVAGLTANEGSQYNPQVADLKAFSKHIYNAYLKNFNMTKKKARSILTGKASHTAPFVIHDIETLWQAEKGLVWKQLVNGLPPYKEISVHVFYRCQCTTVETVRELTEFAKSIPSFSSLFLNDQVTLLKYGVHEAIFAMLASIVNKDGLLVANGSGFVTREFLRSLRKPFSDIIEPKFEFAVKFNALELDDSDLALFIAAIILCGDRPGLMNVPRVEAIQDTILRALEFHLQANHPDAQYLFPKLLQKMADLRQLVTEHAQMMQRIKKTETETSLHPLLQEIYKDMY

[3] = target: T3, Peroxisome proliferator-activated receptor alpha (Homo sapiens, UniProt Q07869); experiment: Agonist activity at GAL4-tagged PPARalpha ligand-binding domain (unknown origin) expressed in HEK293T cells incubated for 16 to 19 hrs by beta-lactamase reporter gene assay; format: cell-based, HEK-293T
T3 sequence (Q07869 whole entry): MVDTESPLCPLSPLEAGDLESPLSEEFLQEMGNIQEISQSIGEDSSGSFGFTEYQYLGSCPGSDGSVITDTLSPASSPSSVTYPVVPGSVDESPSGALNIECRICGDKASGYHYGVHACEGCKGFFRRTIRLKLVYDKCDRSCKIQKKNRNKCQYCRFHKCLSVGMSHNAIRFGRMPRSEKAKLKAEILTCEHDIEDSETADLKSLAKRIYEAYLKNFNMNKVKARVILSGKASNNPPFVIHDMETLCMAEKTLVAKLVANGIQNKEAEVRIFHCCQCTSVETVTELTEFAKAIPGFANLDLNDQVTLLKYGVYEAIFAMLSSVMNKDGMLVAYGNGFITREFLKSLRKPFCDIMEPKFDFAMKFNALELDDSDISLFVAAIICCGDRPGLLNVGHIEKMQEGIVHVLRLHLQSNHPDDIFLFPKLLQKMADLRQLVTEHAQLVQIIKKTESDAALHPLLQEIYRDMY

Work on `Cc1nc(-c2cccc(C(F)(F)F)c2)sc1CNCc1ccc(OC(C)(C)C(=O)O)cc1` yielded a pEC50 [1] of 4.60, a pEC50 [2] of 4.60 and a pEC50 [3] of 8.40.
In the case of `CCCCCOC(=O)c1ccc(NC(=O)c2cccc(NC(=O)c3ccccc3C(=O)O)c2)cc1`, the pEC50 [3] was 8.96.
`Cc1ccc(-c2nc(C)c(C(=O)N[C@H]3CCCN(c4cccc(C(=O)O)c4)C3)s2)cc1` showed a pEC50 [1] of 5.51 and a pEC50 [2] of 4.96.
With `CCOC(=O)C1=C(Nc2ccc(OCC)cc2)S/C(=C/c2ccc(OCC(=O)O)c(OC)c2)C1=O` the pEC50 [3] was 7.92.
`Cc1nc(-c2ccc(Cl)cc2)sc1C(=O)N[C@H]1CCCN(c2cccc(C(=O)O)c2)C1` was tested, and the pEC50 [1] was 5.18 and the pEC50 [2] was 4.89.
In the case of `CC[C@@H](Oc1cccc(CN(CCCOc2ccc(OC)cc2)c2nc3ccccc3o2)c1)C(=O)O` [PEMAFIBRATE], the pEC50 [1] was 5.77 and the pEC50 [2] was 5.00.
For `Cc1c(C(=O)O)cccc1-c1ccc(/C=C2/SC(=O)N(CC(=O)Nc3ccc(F)cc3)C2=O)o1`, the pEC50 [3] was 9.80.

From ChEMBL document CHEMBL3352104, “Biological evaluation and structural insights for design of subtype-selective peroxisome proliferator activated receptor-α (PPAR-α) agonists” (Bioorg Med Chem Lett, 2015)
